Some test systems named below: PEER; HAL-01; JURKAT.
Experiment in all cases: selective drug sensitivity score (sDSS, relative to normal bone marrow) (sDSS (score)); higher = more potent and effective on the cell line relative to normal bone marrow cells
What all share (conditions): 72 h

Results on 37 compounds are retold here after the supplement of paper PMC8967900.
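Note: ALL cell lines in 384-well plates, five doses spanning 10,000-fold, each plate scaled between vehicle and 100 µmol/L benzalkonium chloride controls, sDSS an adapted area-under-curve metric.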

Regarding `C=CCN(/C=C1/C(=O)O[C@H](COC)[C@@]2(C)C1=C(O)C(=O)C1=C2[C@H](OC(C)=O)C[C@]2(C)C(=O)CC[C@@H]12)CC=C` [Sonolisib] (top concentration 10000 nM), the “selective drug sensitivity score” value was -0.76 with PEER, 1.94 with HAL-01 and -0.76 with JURKAT.
For the compound `C[C@H]1CNCCCN1S(=O)(=O)c1cccc2cncc(F)c12` [Ripasudil] (top concentration 10000 nM), the “selective drug sensitivity score” value in the assay with PEER was 1.88; with HAL-01, -0.22; in the assay on JURKAT, -0.22.
For `C[C@@H](Oc1cc(-c2cnn(C3CCNCC3)c2)cnc1N)c1c(Cl)ccc(F)c1Cl` [Crizotinib] (top concentration 1000 nM), the “selective drug sensitivity score” value with PEER was 1.86; with HAL-01 it was -0.54; in the assay with JURKAT, -0.54.
Consider `CCN(CC)CCCC(C)Nc1ccnc2cc(Cl)ccc12` (stereo unspecified) [Chloroquine] (top concentration 100000 nM), for which the “selective drug sensitivity score” value in the assay with PEER was -0.94; with HAL-01, 0.36; in the assay on JURKAT, -5.04.
Take `N#CC(c1ccnc(OCc2ccc(CN3CCOCC3)cc2)n1)c1nc2ccccc2s1` (stereo unspecified) [Bentamapimod] (top concentration 10000 nM): the figures for the “selective drug sensitivity score” value in the assay with PEER, with HAL-01 and in the assay with JURKAT were 5.64, 2.74 and 3.94, respectively.
For the compound `COc1cc(N2CCC(N3CCN(C)CC3)CC2)ccc1Nc1ncnc(Nc2ccccc2S(=O)(=O)C(C)C)n1` [ASP3026] (top concentration 10000 nM), the “selective drug sensitivity score” value with PEER was -0.24; with HAL-01, 1.76; in the assay with JURKAT it was -1.54.
Regarding `COCCOc1cnc2ccn([C@H](C)c3nnc4c(F)cc(-c5cnn(C)c5)cn34)c(=O)c2c1` [AMG-337] (top concentration 10000 nM), the “selective drug sensitivity score” value in the assay on PEER is -0.06; in the assay with HAL-01, 5.24; in the assay on JURKAT, -0.06.
For the compound `Cc1cnc(NC(=O)Nc2cc(Br)c(C)cc2OC[C@@H]2CNCCO2)cn1` [Rabusertib] (top concentration 1000 nM), the “selective drug sensitivity score” value with PEER was -0.74; in the assay on HAL-01, 3.06; in the assay on JURKAT, -0.74.
In the case of `CNC(=O)c1ccc(-c2cnc3ncc(Cc4ccc5ncccc5c4)n3n2)cc1F` [Capmatinib] (top concentration 1000 nM), the “selective drug sensitivity score” value with PEER was -0.06; in the assay with HAL-01, 2.34; in the assay on JURKAT, -0.06.
Consider `COc1cc2/c(=N/c3ccc(Br)cc3F)nc[nH]c2cc1OCC1CCN(C)CC1` [Vandetanib] (top concentration 1000 nM), for which the entries for the “selective drug sensitivity score” value in the assay with PEER, with HAL-01 and in the assay on JURKAT were 1.38, 1.68 and -0.22, respectively.
Take `CC[C@H](C)C(=O)O[C@H]1C[C@H](O)C=C2C=C[C@H](C)[C@H](CC[C@@H](O)C[C@@H](O)CC(=O)O)[C@H]21` [Pravastatin] (top concentration 10000 nM): the figures for the “selective drug sensitivity score” value in the assay on PEER, in the assay with HAL-01 and in the assay on JURKAT were -0.66, 0.64 and -0.66, respectively.
Turning to `Oc1ccc2c(c1)CC[C@H](c1ccccc1)[C@@H]2c1ccc(OCCN2CCCC2)cc1` [Lasofoxifene] (top concentration 1000 nM), the figures for the “selective drug sensitivity score” value in the assay on PEER, in the assay with HAL-01 and in the assay with JURKAT were -1.28, -0.08 and -1.28, respectively.
With `O=C1CN2Cc3c(ccc(Cl)c3Cl)N=C2N1` [Anagrelide] (top concentration 10000 nM), the “selective drug sensitivity score” value in the assay with PEER, in the assay with HAL-01 and in the assay on JURKAT was 0 each time.
In the case of `CC1=C2C[C@H]3[C@@H](CC[C@@H]4C[C@H](NS(C)(=O)=O)CC[C@@]43C)[C@@H]2CC[C@@]2(C1)O[C@@H]1C[C@H](C)CN[C@H]1[C@H]2C` [Saridegib] (top concentration 10000 nM), the “selective drug sensitivity score” value in the assay on PEER is 2.94; in the assay with HAL-01 it was 1.14; in the assay with JURKAT, -0.56.
`CCN(CC)CCN(Cc1ccc(-c2ccc(C(F)(F)F)cc2)cc1)C(=O)Cn1c(SCc2ccc(F)cc2)nc(=O)c2c1CCC2` [Darapladib] (top concentration 1000 nM): the entries for the “selective drug sensitivity score” value in the assay on PEER, with HAL-01 and with JURKAT were -1.42, 0.58 and -1.42, respectively.
Consider `COc1cc2ncnc(Nc3ccc(F)c(Cl)c3)c2cc1NC(=O)/C=C/CN1CCCCC1` [Dacomitinib] (top concentration 1000 nM), for which the “selective drug sensitivity score” value is -0.14 in the assay with PEER, 2.66 with HAL-01 and -1.64 in the assay with JURKAT.
On the same counts, the results for `CC(C)C(=O)Nc1ccc([N+](=O)[O-])c(C(F)(F)F)c1` [Flutamide] (top concentration 10000 nM) are 0.94, 3.94 and 1.84.
Turning to `CC#CC(=O)N1CCC[C@H]1c1nc(-c2ccc(C(=O)Nc3ccccn3)cc2)c2c(N)nccn12` [Acalabrutinib] (top concentration 1000 nM), the “selective drug sensitivity score” value in the assay with PEER was -0.1; in the assay with HAL-01, 7.2; in the assay with JURKAT, 0.
On the same counts, the results for `Cn1nnc2c(C(N)=O)ncn2c1=O` [Temozolomide] (top concentration 100000 nM) are -0.04, -0.04 and 2.36.
Regarding `COc1cc2c(Oc3ccc4[nH]c(C)cc4c3F)ncnc2cc1OCCCN1CCCC1` [Cediranib] (top concentration 1000 nM), the “selective drug sensitivity score” value in the assay on PEER worked out at 0; in the assay with HAL-01, 5.7; in the assay on JURKAT, 0.
With `N#Cc1ccnc(N2C(=O)CC[C@H]2C(=O)N(c2cncc(F)c2)[C@H](C(=O)NC2CC(F)(F)C2)c2ccccc2Cl)c1` [Ivosidenib] (top concentration 10000 nM), the entries for the “selective drug sensitivity score” value in the assay on PEER, in the assay on HAL-01 and in the assay with JURKAT were 0.6, 3.2 and 0.7, respectively.
The matching figures for `Cc1cc(-c2ncc(CC(=O)Nc3ccc(-c4cnccn4)cn3)cc2C)ccn1` [NVP-LGK974] (top concentration 10000 nM): 6.9, -0.8 and 7.3.
As to `Cc1c(Cn2c(C)nc3c(C(=O)O)cc(N4CCOCC4)cc32)cccc1C(F)(F)F` (top concentration 10000 nM), the “selective drug sensitivity score” value in the assay with PEER is -0.02; with HAL-01 it was 9.28; in the assay on JURKAT it was -0.02.
With `Cc1ccc(F)c(NC(=O)Nc2ccc(-c3cccc4[nH]nc(N)c34)cc2)c1` [Linifanib] (top concentration 1000 nM), the “selective drug sensitivity score” value with PEER, in the assay with HAL-01 and in the assay on JURKAT was -1.12 in each case.
With `C=CC(=O)N1CCC(Oc2cc3c(Nc4ccc(Cl)c(Cl)c4F)ncnc3cc2OC)CC1` [Poziotinib] (top concentration 1000 nM), the “selective drug sensitivity score” value in the assay with PEER is -0.22; in the assay on HAL-01, 1.18; in the assay with JURKAT, -0.22.
As to `CCOCc1nc2c(N)nc3ccccc3c2n1CC(C)(C)O` [Resiquimod] (top concentration 10000 nM), the “selective drug sensitivity score” value with PEER was -4.92; with HAL-01, -4.62; with JURKAT it was -4.52.
As for `CNC(=O)c1cccc2cc(Oc3ccnc4cc(OCC5(N)CC5)c(OC)cc34)ccc12` [Lucitanib] (top concentration 10000 nM), the “selective drug sensitivity score” value was determined as 3.08 in the assay on PEER, 3.88 in the assay on HAL-01 and 2.78 with JURKAT.
In the case of `COc1cc(Br)c(Nc2nc(-c3c(C)nc4ncccn34)cs2)c(Br)c1` [PTC-209] (top concentration 10000 nM), the “selective drug sensitivity score” value in the assay with PEER was -0.38; in the assay with HAL-01, 0.42; in the assay with JURKAT, 0.62.
As to `Nc1nc2cc(-c3ccc4ncc(C(=O)N5CCOCC5)n4c3)ccc2o1` [Serabelisib] (top concentration 10000 nM), the “selective drug sensitivity score” value in the assay with PEER is -1.04; with HAL-01, -1.54; in the assay on JURKAT, -1.54.
`COc1cccc(-c2ccc(NC(=O)C3=C(C(=O)O)CCC3)c(F)c2)c1` [Vidofludimus] (top concentration 10000 nM): the entries for the “selective drug sensitivity score” value in the assay with PEER, with HAL-01 and in the assay with JURKAT were 5.1, 2 and 8.2, respectively.
For `Cc1cccc(-c2nn3c(c2-c2ccnc4ccc(C(N)=O)cc24)CCC3)n1` [Galunisertib] (top concentration 1000 nM), the entries for the “selective drug sensitivity score” value in the assay with PEER, in the assay with HAL-01 and in the assay on JURKAT were 0, 1.6 and 0, respectively.
Turning to `COc1cc2c(N3CCN(C(=O)Nc4ccc(OC(C)C)cc4)CC3)ncnc2cc1OCCCN1CCCCC1` [Tandutinib] (top concentration 1000 nM), the “selective drug sensitivity score” value in the assay on PEER, with HAL-01 and in the assay on JURKAT was 0 each time.
For the compound `Cc1c(F)cc(C(=O)NC2CC2)cc1-c1ccc(C(=O)NCC(C)(C)C)cn1` [Losmapimod] (top concentration 10000 nM), the “selective drug sensitivity score” value with PEER was -0.08; in the assay with HAL-01, -0.08; with JURKAT, -0.18.
As to `Nc1nc(N)c2nc(-c3cccc(O)c3)c(-c3cccc(O)c3)nc2n1` [TG100-115] (top concentration 10000 nM), the “selective drug sensitivity score” value in the assay with PEER was -0.2; with HAL-01, 3.2; in the assay on JURKAT it was -0.3.
`C[C@]12CC[C@@H]3c4ccc(O)cc4C[C@@H](CCCCCCCCC[S+]([O-])CCCC(F)(F)C(F)(F)F)[C@H]3[C@@H]1CC[C@@H]2O` (stereo partly specified) [Fulvestrant] (top concentration 1000 nM): the “selective drug sensitivity score” value in the assay on PEER, with HAL-01 and with JURKAT was 0 in each case.
For `O=C(Nc1cccnc1)N1CCC(Cc2cccc(Oc3ccc(C(F)(F)F)cn3)c2)CC1` [PF-3845] (top concentration 10000 nM), the results for the “selective drug sensitivity score” value in the assay on PEER, in the assay on HAL-01 and in the assay with JURKAT were 7.06, -0.84 and 6.36, respectively.
As for `COc1cc2c(cc1OCCCN1CCCC1)N=C(N)C21CCC1` [A-366] (top concentration 25000 nM), the “selective drug sensitivity score” value in the assay with PEER is 1.46; with HAL-01 it was -1.84; with JURKAT, -1.04.
